≈ marks a conversion by molar mass, not a printed value. Read-outs that look alike come from different tables or passages of the source.
Experiments:
physchem = conditions: pH 7.4, aqueous buffer, kinetic from dmso stock
In short: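 DMSO doubling dilutions were diluted twenty-fold into 100 mM citrate (pH 4), PBS (pH 7.4) or carbonate-bicarbonate (pH 9). After 24 h equilibration at room temperature, absorbance was read at 620 nm. The reported value is the highest concentration without measurable precipitate.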

[1] = tested on: Staphylococcus aureus (Isolate ID ATCC 29213); assay: Antibacterial activity, MIC, S. aureus; type: cell-based; conditions: Staphylococcus aureus, ATCC29213, Gram positive strain; broth microdilution or agar dilution
In short: (§1)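 Susceptibility testing run in liquid or on solid media, with MIC values obtained by the CLSI-described broth microdilution or agar dilution method.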

[2] = tested on: Enterococcus faecalis (Isolate ID ATCC 29212); assay: Antibacterial activity, MIC, E. faecalis; type: cell-based; conditions: Enterococcus faecalis, ATCC29212; Gram positive strain; broth microdilution or agar dilution
In short: as §1

[3] = tested on: Streptococcus pyogenes (Isolate ID ATCC 51339); assay: Antibacterial activity, MIC, S. pyogenes; type: cell-based; conditions: Streptococcus pyogenes, ATCC51339, Gram positive strain; broth microdilution or agar dilution
In short: as §1

[4] = tested on: Haemophilus influenzae (Isolate ID ATCC 49247); assay: Antibacterial activity, MIC, H. influenzae; type: cell-based; conditions: Haemophilus influenzae, ATCC49247; Gram negative strain; broth microdilution or agar dilution
In short: as §1

[5] = Pharmacokinetic assay, IV and oral PK profile, mouse; type: in vivo; conditions: plasma; for bioavailability: [AUCoral/AUCiv]×100%, 3 mg/kg, read-out: F (%) bioavailability
Procedure: (§2) Pharmacokinetic Assays: Determination of PK Profile
(§3) The pharmacokinetic profiles of compounds were determined by measuring the compound concentration in plasma by LC/MS/MS following a single intravenous or peroral administration of the compounds at a dose of 3 mg/kg. The concentrations described are the mean plasma concentrations at each time point from three animals. Intravenous dose formulation was administered as a single bolus dose through the tail vein. Oral dose formulation was administered to animals by an oral gavage needle. In both cases the dose volume was 5.0 mL/kg. Blood was collected from rats using a jugular vein catheter and from anesthetized mice through a capillary guided into the retro-orbital plexus. The collected blood was centrifuged to obtain plasma and the compounds extracted into methanol prior to determining the compound concentration by LC/MS/MS. The results for selected compounds of the invention are shown in FIGS. 2 to 8 where the X axis denotes time (hours) and the Y axis denotes plasma concentration (ng/mL). The Cmaxoral (μg/mL), AUCiv (μg·hr/mL), AUCoral (μg.hr/mL) and F(%) values are provided in the following table where Cmaxoral is the maximum oral concentration, AUC is area under the curve for intraveneous (IV) and oral and F (%) represents compound bioavailability as calculated by [AUCoral/AUCiv]×100%.

[6] = Pharmacokinetic assay, IV and oral PK profile, rat; type: in vivo; conditions: plasma; for bioavailability: [AUCoral/AUCiv]×100%, 3 mg/kg, read-out: F (%) bioavailability
Procedure: as §2, §3

[7] = target: T1, Gyrase enzyme (A2B2 complex from Staphylococcus aureus) (UniProt P0A0K8); assay: Gyrase ATPase assay (S. aureus enzyme); type: biochemical
T1 construct: 2 mU/μl Gyrase enzyme (A2B2 complex from Staphylococcus aureus); Alternatively
Procedure: On-Target Enzyme Assay: Determination of Gyrase ATPase Activity
Gyrase converts ATP into ADP and inorganic phosphate. The released phosphate can be detected by the addition of malachite green solution and measured by monitoring the increase in absorbance at 600 nm. The ATPase assay is carried out in a buffer containing 2 mU/μl Gyrase enzyme (A2B2 complex from Staphylococcus aureus), 0.08 mg/ml double-stranded DNA, 8 mM HEPES.KOH pH 7.6, 100 mM K glutamate, 2 mM Mg acetate, 2 mM DTT, 0.01 mg/ml BSA, and 5% DMSO solution containing the inhibitor. Alternatively, the ATPase assay is carried out in a buffer containing 4.8 μg/mL Gyrase enzyme (A2B2 complex from Escherichia coli), 0.08 μg/mL ssDNA, 35 mM Tris pH 7.5, 24 mM KCl, 2 mM MgCl2, 6.5% Glycerol, 2 mM DTT, 1.8 mM Spermidine, 0.5 mg/mL BSA and 5% DMSO solution containing the inhibitor. The reaction is started by adding ATP to a final concentration of 1 mM and allowed to incubate at 30° C. for 60 minutes. The reaction is stopped by adding […] of malachite green solution (0.034% malachite green, 10 mM ammonium molybdate, 1 M HCl, 3.4% ethanol, 0.01% tween 20). Colour is allowed to develop for 5 minutes and the absorbance at 600 nm is measured spectrophotometrically. The IC50 values are determined from the absorbance readings using no compound and no enzyme controls.

[8] = Solubility Range (maximum solubility)
[9] = po, single peroral dose 3 mg/kg, read-out: AUCoral
[10] = single intravenous dose 3 mg/kg, read-out: AUCiv

SMILES | solubility at 24 h (physchem; Max Solubility) [µg/mL] | solubility at 24 h (physchem; Solubility (pH 7.4)) [µg/mL] | solubility at 24 h (physchem; Solubility Range) [µg/mL] | solubility at 24 h (physchem; [8]) [µg/mL] | MIC [1] [µg/mL] | MIC [2] [µg/mL] | MIC [3] [µg/mL] | MIC [4] [µg/mL] | bioavailability ([5]; po) [%] | AUC [5, 9] [ng·h/mL] | AUC [5, 10] [ng·h/mL] | Cmaxoral ([5]; single peroral dose 3 mg/kg) [µg/mL] | bioavailability ([6]; po) [%] | AUC [6, 9] [ng·h/mL] | AUC [6, 10] [ng·h/mL] | Cmaxoral ([6]; single peroral dose 3 mg/kg) [µg/mL] | IC50 ([7]; read-out: Gyrase ATPase activity (IC50); enzyme source (S. aureus or E. coli) not given; 1 mM ATP, 30° C., 60 minutes) [nM] | IC50 ([7]; enzyme source (S. aureus or E. coli) not given; 1 mM ATP, 30° C., 60 minutes; read-out: Gyrase ATPase activity (IC50)) [nM]
CCNC(=O)Nc1nc2cc(-c3cnc(N4CCC(C)(C(=O)O)CC4)nc3)cc(/C(C)=N/OC)c2s1 [Compound 88, 1-[5-[2-(ethylcarbamoylamino)-7-[(E)-N-methoxy-C-methyl-carbonimidoyl]-1,3-benzothiazol-5-yl]pyrimidin-2-yl]-4-methyl-piperidine-4-carboxylic acid] | ≥ 800 | ≥ 800 | > 800 | > 800 | ≤ 0.25 | ≤ 0.25 | ≤ 0.25 | 1 to 16 (≈ 1.95 to 31.3 µM) | 56 | 3400 | 6100 | 2 |  |  |  |  |  | 
CCNC(=O)Nc1nc2cc(-c3cnc(N4CCC(CC)(C(=O)O)CC4)nc3)cc(-c3ccccn3)c2s1 [Compound 98] |  | ≥ 800 | > 800 |  | ≤ 0.25 | ≤ 0.25 | ≤ 0.25 | 1 to 16 (≈ 1.88 to 30.1 µM) | 87 | 12500 | 14300 | 6.1 | 80.4 | 22200 | 27700 | 3.5 |  | 
CCNC(=O)Nc1nc2cc(-c3nsc(N4CCC(CC)(C(=O)O)CC4)n3)cc(-c3ccccn3)c2s1 [Compound 232, 4-ethyl-1-(3-{2-[(ethylcarbamoyl)amino]-7-(pyridin-2-yl)-1,3-benzothiazol-5-yl}-1,2,4-thiadiazol-5-yl)piperidine-4-carboxylic acid] |  |  |  |  | 1 to 16 (≈ 1.86 to 29.8 µM) |  | > 16 | > 16 |  |  |  |  |  |  |  |  | 930 | 
CCNC(=O)Nc1nc2cc(-c3cnc(N4CCC(CC)(C(=O)OCC)CC4)nc3)cc(-c3cnc(N4CCC(CC)(C(=O)OCC)CC4)nc3)c2o1 [Compound 234, Diethyl 1,1′-({2-[(ethylcarbamoyl)amino]-1,3-benzoxazole-5,7-diyl}dipyrimidine-5,2-diyl)bis(4-ethylpiperidine-4-carboxylate)] |  |  |  |  | > 16 |  | > 16 |  |  |  |  |  |  |  |  |  |  | > 1370

Continued, in another order:

solubility at 24 h (physchem; Max Solubility) [µg/mL] | solubility at 24 h (physchem; Solubility (pH 7.4)) [µg/mL] | solubility at 24 h (physchem; Solubility Range) [µg/mL] | solubility at 24 h (physchem; [8]) [µg/mL] | MIC [1] [µg/mL] | MIC [2] [µg/mL] | MIC [3] [µg/mL] | MIC [4] [µg/mL] | bioavailability ([5]; po) [%] | AUC [5, 9] [ng·h/mL] | AUC [5, 10] [ng·h/mL] | Cmaxoral ([5]; single peroral dose 3 mg/kg) [µg/mL] | bioavailability ([6]; po) [%] | AUC [6, 9] [ng·h/mL] | AUC [6, 10] [ng·h/mL] | Cmaxoral ([6]; single peroral dose 3 mg/kg) [µg/mL] | SMILES | IC50 ([7]; read-out: Gyrase ATPase activity (IC50); enzyme source (S. aureus or E. coli) not given; 1 mM ATP, 30° C., 60 minutes) [nM] | IC50 ([7]; enzyme source (S. aureus or E. coli) not given; 1 mM ATP, 30° C., 60 minutes; read-out: Gyrase ATPase activity (IC50)) [nM]
≥ 800 | ≥ 800 | > 800 | > 800 | 0.25 to 1 (≈ 0.484 to 1.94 µM) | ≤ 0.25 | ≤ 0.25 | 1 to 16 (≈ 1.94 to 31 µM) | 33 | 2500 | 7600 | 1.7 | 31 | 2100 | 6600 | 0.6 | CCNC(=O)Nc1nc2cc(-c3ccc(N4CCC(C)(C(=O)O)CC4)nc3)cc(-c3ccccn3)c2s1 [Compound 4] |  | 
≥ 800 | ≥ 800 | > 800 | > 800 | ≤ 0.25 | ≤ 0.25 | ≤ 0.25 | 1 to 16 (≈ 1.84 to 29.4 µM) | 83 | 16500 | 20000 | 4.4 | 95.9 | 34800 | 36300 | 5.5 | C=CCC1(C(=O)O)CCN(c2ncc(-c3cc(-c4ccccn4)c4sc(NC(=O)NCC)nc4c3)cn2)CC1 [Compound 136] |  | 
≥ 800 | ≥ 800 | > 800 | > 800 | ≤ 0.25 | ≤ 0.25 | ≤ 0.25 | 1 to 16 (≈ 1.84 to 29.4 µM) |  |  |  |  | 10 | 4700 | 46900 | 0.7 | CCNC(=O)Nc1nc2cc(-c3cnc(N4CCC(C(=O)O)(C5CC5)CC4)nc3)cc(-c3ccccn3)c2s1 [Compound 143] |  | 
≥ 800 | ≥ 800 | > 800 | > 800 | ≤ 0.25 | ≤ 0.25 | ≤ 0.25 | 0.25 to 1 (≈ 0.467 to 1.87 µM) |  |  |  |  | 87 | 4200 | 4800 | 0.7 | CCNC(=O)Nc1nc2c(F)c(-c3cnc(N4CCC(C)(C(=O)O)CC4)nc3)cc(-c3ccccn3)c2s1 [Compound 161, 1-[5-[2-(ethylcarbamoylamino)-4-fluoro-7-(2-pyridyl)-1,3-benzothiazol-5-yl]pyrimidin-2-yl]-4-methyl-piperidine-4-carboxylic acid] |  | 
